In ChEMBL document CHEMBL1201862, “PubChem BioAssay data set” (2004):
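Each compound was tested at five concentrations against cells in 96-well plates for 48 hours. The concentration for 50% growth inhibition is given as GI50.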 Calls of active or inactive are those of the source. Cut-off read from the data, not from the text of the source: active = GI50 up to about 1.1 µM and inactive = higher.

Legend:
Experiment in all cases: inhibition of tumour cell growth, NCI panel, 48 h
SN12C = system: SN12C
MDA-MB-231 = system: MDA-MB-231
TK-10 = system: TK-10
SF-295 = system: SF-295
HCC 2998 = system: HCC 2998
SF-268 = system: SF-268
SW-620 = system: SW-620
OVCAR-3 = system: OVCAR-3
MDA-MB-435 = system: MDA-MB-435
K562 = system: K562
SK-MEL-2 = system: SK-MEL-2
MDA-N = system: MDA-N
SK-MEL-28 = system: SK-MEL-28
CAKI-1 = system: CAKI-1
NCI-H226 = system: NCI-H226
EKVX = system: EKVX
786-0 = system: 786-0
A498 = system: A498
SNB-19 = system: SNB-19
HL-60 = system: HL-60

Row | SMILES | GI50 (SN12C) | GI50 (MDA-MB-231) | GI50 (TK-10) | GI50 (SF-295) | GI50 (HCC 2998) | GI50 (SF-268) | GI50 (SW-620) | GI50 (OVCAR-3) | GI50 (MDA-MB-435) | GI50 (K562) | GI50 (SK-MEL-2) | GI50 (MDA-N) | GI50 (SK-MEL-28) | GI50 (CAKI-1) | GI50 (NCI-H226) | GI50 (EKVX) | GI50 (786-0) | GI50 (A498) | GI50 (SNB-19) | GI50 (HL-60)
1 | NS(=O)(=O)c1nnc(NC(=O)C23CC4CC(CC(C4)C2)C3)s1 | > 100 µM (inactive) | > 100 µM (inactive) | > 100 µM (inactive) | > 100 µM (inactive) | > 100 µM (inactive) | 55.7 µM (inactive) | > 100 µM (inactive) | > 100 µM (inactive) | > 100 µM (inactive) | > 100 µM (inactive) | > 100 µM (inactive) | > 100 µM (inactive) | > 100 µM (inactive) | > 100 µM (inactive) | > 100 µM (inactive) | > 100 µM (inactive) | > 100 µM (inactive) | > 100 µM (inactive) | > 100 µM (inactive) | –
2 | S=C(Nc1ccc2cn[nH]c2c1)Nc1ccc2cn[nH]c2c1 | > 100 µM (inactive) | > 100 µM (inactive) | 48.1 µM (inactive) | 87.3 µM (inactive) | 60.8 µM (inactive) | > 100 µM (inactive) | > 100 µM (inactive) | > 100 µM (inactive) | 58.9 µM (inactive) | 61.7 µM (inactive) | 35.6 µM (inactive) | 57.4 µM (inactive) | > 100 µM (inactive) | > 100 µM (inactive) | 44.1 µM (inactive) | 54 µM (inactive) | 98.2 µM (inactive) | 46 µM (inactive) | > 100 µM (inactive) | –
3 | Cc1cc2c(cc1C)C(=O)C1(C2)Cc2c(C)ccc(C)c2C1=O (stereo unspecified) | > 100 µM (inactive) | > 100 µM (inactive) | > 100 µM (inactive) | > 100 µM (inactive) | > 100 µM (inactive) | > 100 µM (inactive) | > 100 µM (inactive) | > 100 µM (inactive) | > 100 µM (inactive) | > 100 µM (inactive) | > 100 µM (inactive) | > 100 µM (inactive) | > 100 µM (inactive) | > 100 µM (inactive) | > 100 µM (inactive) | > 100 µM (inactive) | > 100 µM (inactive) | – | > 100 µM (inactive) | > 100 µM (inactive)
4 | C[N+]12C=CC=C1C(N1CCCC1)c1sc(-c3ccc(Cl)cc3)cc12 (stereo unspecified) | 13.7 µM (inactive) | 18.3 µM (inactive) | 19.6 µM (inactive) | 20.3 µM (inactive) | 15.7 µM (inactive) | 17.1 µM (inactive) | 15.9 µM (inactive) | 13.6 µM (inactive) | 15.7 µM (inactive) | – | 8.39 µM (inactive) | 15.8 µM (inactive) | 17.2 µM (inactive) | > 100 µM (inactive) | 17 µM (inactive) | 22.6 µM (inactive) | 15.4 µM (inactive) | 18.8 µM (inactive) | 13.6 µM (inactive) | –
5 | O=C1c2ccccc2C(=O)c2c1c1cc(O)ccc1n2Cc1ccc(Cl)cc1Cl | 3.88 µM (inactive) | 3.85 µM (inactive) | 9.29 µM (inactive) | 7.5 µM (inactive) | – | 12.9 µM (inactive) | 8.17 µM (inactive) | – | 9.42 µM (inactive) | 32.2 µM (inactive) | 16 µM (inactive) | 12.1 µM (inactive) | 17.3 µM (inactive) | 3.9 µM (inactive) | 11.5 µM (inactive) | – | 2.75 µM (inactive) | 17.2 µM (inactive) | 13.4 µM (inactive) | 46.7 µM (inactive)
6 | CCn1c(=O)c2c3cc(OC(C)=O)ccc3oc2c2ccc(OC(C)=O)cc21 | 43.6 µM (inactive) | 48.4 µM (inactive) | 29.5 µM (inactive) | 19.8 µM (inactive) | 23.4 µM (inactive) | 31.9 µM (inactive) | 38.4 µM (inactive) | 39.8 µM (inactive) | 31.1 µM (inactive) | 33.8 µM (inactive) | – | 33.3 µM (inactive) | 49 µM (inactive) | 40 µM (inactive) | 34.4 µM (inactive) | 21 µM (inactive) | 56.1 µM (inactive) | 24.8 µM (inactive) | 46.9 µM (inactive) | –
7 | COC(=O)c1c2c(cc3c1CC1(Cc4cc5c(c(C(C)=O)c4C1)CCCC5)C3)CCCC2 (stereo unspecified) | > 100 µM (inactive) | > 100 µM (inactive) | > 100 µM (inactive) | > 100 µM (inactive) | > 100 µM (inactive) | – | – | > 100 µM (inactive) | 92.5 µM (inactive) | 23.4 µM (inactive) | 21.4 µM (inactive) | 66.4 µM (inactive) | – | – | > 100 µM (inactive) | > 100 µM (inactive) | > 100 µM (inactive) | > 100 µM (inactive) | – | 12.6 µM (inactive)
8 | Cc1cc(C)c(C(=O)c2nnc3ccccc3c2N)c(C)c1 | 15.3 µM (inactive) | 16.9 µM (inactive) | – | – | – | 48.3 µM (inactive) | 26.7 µM (inactive) | 16.3 µM (inactive) | 15.8 µM (inactive) | – | 14.9 µM (inactive) | 16.7 µM (inactive) | 17 µM (inactive) | 19.3 µM (inactive) | 16.5 µM (inactive) | – | 12.3 µM (inactive) | 26.9 µM (inactive) | 35.8 µM (inactive) | 7.55 µM (inactive)
9 | c1ccc(/N=C2\c3ccccc3CN2c2ccccc2)cc1 | > 100 µM (inactive) | > 100 µM (inactive) | > 100 µM (inactive) | > 100 µM (inactive) | > 100 µM (inactive) | > 100 µM (inactive) | > 100 µM (inactive) | > 100 µM (inactive) | > 100 µM (inactive) | > 100 µM (inactive) | > 100 µM (inactive) | > 100 µM (inactive) | > 100 µM (inactive) | > 100 µM (inactive) | > 100 µM (inactive) | > 100 µM (inactive) | > 100 µM (inactive) | – | > 100 µM (inactive) | > 100 µM (inactive)
10 | CCC[C@H](O)[C@@H](CNc1cc(NC(C)=O)nc(NC(C)=O)n1)N(Cc1ccccc1)Cc1ccccc1 | 41.3 µM (inactive) | 49.9 µM (inactive) | 20.3 µM (inactive) | 6.44 µM (inactive) | 76.4 µM (inactive) | – | > 100 µM (inactive) | 18.9 µM (inactive) | 54 µM (inactive) | > 100 µM (inactive) | 27.4 µM (inactive) | 47 µM (inactive) | 42.9 µM (inactive) | 18.2 µM (inactive) | 14.3 µM (inactive) | 12.1 µM (inactive) | 17.7 µM (inactive) | 30.8 µM (inactive) | 39.3 µM (inactive) | –
11 | CC[C@@]1(O)CC(OC2CC(N3CCOCC3)C(O)C(C)O2)c2c(O)c3c(c(O)c2[C@H]1O)C(=O)c1cccc(O)c1C3=O (stereo partly specified) | 0.0667 µM (active) | 0.348 µM (active) | 0.452 µM (active) | 0.0575 µM (active) | 0.223 µM (active) | 0.122 µM (active) | 0.0469 µM (active) | 0.355 µM (active) | 0.304 µM (active) | 0.112 µM (active) | 0.312 µM (active) | 0.131 µM (active) | 0.378 µM (active) | – | 0.0893 µM (active) | 0.318 µM (active) | 0.0407 µM (active) | 0.191 µM (active) | 0.127 µM (active) | 0.0311 µM (active)
